# Reference: article PMC2363166, “Water-soluble aluminium phthalocyanine–polymer conjugates for PDT: photodynamic activities and pharmacokinetics in tumour-bearing mice” (British Journal of Cancer, 1999)
# How the values were obtained:
# EMT-6 tumour = details: 0.25 μmol kg-1 i.v., PDT 24 h p.i., 400 J cm-2, ref Chan et al (1997); cited from earlier work
# Colo-26 tumour = experiment: Photodynamic therapy of the Colo-26 tumour implanted i.d. in Balb/c mice; assay type: in vivo; parameters: Oedema observed 24 h after PDT: key to the marks not given beside the values
# Description: (§1) Among the second-generation photosensitizers (PS) developed for the treatment of neoplastic diseases by photodynamic therapy (PDT) (Kessel, 1996; Ochsner, 1997), metallo-phthalocyanines (MePc) have been proposed (Spikes, 1986; van Lier, 1990; Rosenthal, 1991) as an alternative to Photofrin (PII), the only PS currently approved for clinical use. Their stronger absorption in the red part of the spectrum (molar extinction coefficient, […] at 675 nm), where the depth of light penetration in tissues is twice that obtained at 630 nm with PII (Svaasand, 1984), together with their chemical homogeneity and their lower potential to induce cutaneous photosensitivity (Roberts et al, 1989; Tralau et al, 1989) are major advantages over PII. Unsubstituted MePc are not soluble in physiological solvents and their in vivo administration relies upon their incorporation into carriers, such as the liposomal formulation of ZnPc (Isele et al, 1995), or their chemical conversion into water-soluble dyes by the attachment of selected substituents onto the benzene rings of the macrocycle. An inverse relationship was related between the degree of substitution by sulphonato groups of MePc and their hydrophobicity and photodynamic activities, both at the cellular level and in tumour-bearing mice (Brasseur et al, 1987, 1988; Paquette et al, 1988; Berg et al, 1989; Chan et al, 1990, 1991; Margaron et al, 1996a). The potential of the water-soluble aluminium sulphophthalocyanine (AlPcS) to generate activated oxygen species (Sharman et al, 1999) and to induce a photo- dynamic response in vivo has been widely evaluated, and a mixture of AlPcS bearing 2-4 sulphonato groups per Pc (Photosense) is used extensively and successfully in clinical PDT in Russia (Zharkova et al, 1994). […] The unsubstituted AlClPc has, however, attracted less attention even though it has been shown that this compound formulated as a Cremophor emulsion was preferentially retained by a gliosarcoma and was able to induce tumour necrosis in this model (Dereski et al, 1994). […] However, Cremophor oil is known to induce unwanted side-effects in patients (Dye and Watkins, Water-soluble aluminium phthalocyaninepolymer conjugates for PDT: photodynamic activities and pharmacokinetics in tumour-bearing mice N Brasseur, R Ouellet, C La Madeleine and JE van Lier MRC Group in the Radiation Sciences, Faculty of Medicine, Universite de Sherbrooke, Sherbrooke, Quebec, J1H 5N4, Canada Summary The potential use of unsubstituted aluminium phthalocyanine (AlClPc) as a sensitizer for photodynamic therapy (PDT) of cancer has not been fully exploited in spite of its higher efficiency as compared to the sulphonated derivatives. This is largely due to the strong hydrophobic character of AlClPc which renders the material difficult to formulate for in vivo administration. We prepared two water-soluble derivatives of AlClPc by axial coordination of polyethyleneglycol (PEG, MW 2000) or polyvinylalcohol (PVA, MW 13 000-23 000) to the central aluminium ion. Their photodynamic activities were evaluated in vitro against the EMT-6 mouse mammary tumour cells and in vivo against the EMT-6 and the colon carcinoma Colo-26 tumours implanted intradermally in Balb/c mice. Pharmacokinetics were studied in the EMT-6 tumour-bearing mice. […] All three dye preparations induced complete EMT-6 tumour regression in 75-100% of animals at a low drug dose ([…] ) following PDT (400 J cm-2 , 650-700 nm) at 24 h pi. Complete tumour regression in the Colo-26 tumour model was obtained in 30% of mice at a dose of […] . In the non-cured animals, AlPc-PVA induced the most significant tumour growth delay. […] Moreover, in the case of the polyvinylalcohol derivative, axial coordination confers advantageous pharmacokinetics to AlPc, which makes this photosensitizer a valuable, water soluble candidate drug for clinical PDT of cancer. […]
# [1] = tested on: EMT-6 mouse mammary tumour cells; experiment: Cellular photoinactivation, MTT cell survival after red light; assay type: cell-based; details: 1% FBS, red light 660-700 nm
# Description: Among the second-generation photosensitizers (PS) developed for the treatment of neoplastic diseases by photodynamic therapy (PDT) (Kessel, 1996; Ochsner, 1997), metallo-phthalocyanines (MePc) have been proposed (Spikes, 1986; van Lier, 1990; Rosenthal, 1991) as an alternative to Photofrin (PII), the only PS currently approved for clinical use. Their stronger absorption in the red part of the spectrum (molar extinction coefficient, […] at 675 nm), where the depth of light penetration in tissues is twice that obtained at 630 nm with PII (Svaasand, 1984), together with their chemical homogeneity and their lower potential to induce cutaneous photosensitivity (Roberts et al, 1989; Tralau et al, 1989) are major advantages over PII. […] The potential of the water-soluble aluminium sulphophthalocyanine (AlPcS) to generate activated oxygen species (Sharman et al, 1999) and to induce a photo- dynamic response in vivo has been widely evaluated, and a mixture of AlPcS bearing 2-4 sulphonato groups per Pc (Photosense) is used extensively and successfully in clinical PDT in Russia (Zharkova et al, 1994). […] Their photodynamic activities were evaluated in vitro against the EMT-6 mouse mammary tumour cells and in vivo against the EMT-6 and the colon carcinoma Colo-26 tumours implanted intradermally in Balb/c mice. […]
# [2] = Biodistribution and plasma clearance after i.v. injection in EMT-6 tumour-bearing mice; assay type: in vivo
# Description: as §1
# [3] = Colo-26 tumour, 2 μmol kg-1 i.v., PDT 24 h p.i., 400 J cm-2
# [4] = 6 h after i.v. 2 μmol kg-1, n = 4
# [5] = 24 h after i.v. 2 μmol kg-1, n = 4
# [6] = 48 h after i.v. 2 μmol kg-1, n = 4
# [7] = 168 h after i.v. 2 μmol kg-1, n = 4
smiles,measurement,setting,value
"[Cl][Al]1[n]2c3c4ccccc4c2N=C2N=C(N=c4c5ccccc5c([n]41)=NC1=NC(=N3)c3ccccc31)c1ccccc12 [AlClPc, aluminium phthalocyanine]",Oedema observed 24 h after PDT,EMT-6 tumour,+
same,"Tumour response, Cure (complete tumour regression at 21 days)",EMT-6 tumour,100 % of mice
same,"Tumour response, Regression (flat and necrotic within 3-5 days after PDT)",EMT-6 tumour,100 % of mice
same,damage to leg muscle,"Colo-26 tumour; 2 μmol kg-1, PDT 24 h p.i.",did not induce damage to leg muscle
same,tumour regrowth delay relative to controls,"Colo-26 tumour; Colo-26 tumour, 2 μmol kg-1, non-cured mice",1.5 times that of the controls
same,"Tumour response, Regression (flat and necrotic within 3-5 days after PDT)","Colo-26 tumour; Colo-26 tumour, 2 μmol kg-1 i.v., PDT 24 h p.i., 200 mW cm-2, 400 J cm-2",80 % of mice
same,Oedema observed 24 h after PDT,Colo-26 tumour; [3],++
same,"Tumour response, Cure (complete tumour regression at 30 days minimum)",Colo-26 tumour; [3],30 % of mice
same,Regrowth to 20 Vo (time for tumour to reach 20 times the volume at the time of PDT),"Colo-26 tumour; Colo-26 tumour, 2 μmol kg-1 i.v., PDT 24 h p.i., non-cured mice only, controls 15.0 (0.3)",23.5 (2.1) days (s.e.m.)
same,light dose required to kill 90% of cells (LD90),"[1]; 1 h incubation, 10 mW cm-2, max 36 J cm-2",13.5 J cm-2
same,light dose required to kill 90% of cells (LD90),"[1]; 24 h incubation, 10 mW cm-2",4.5 J cm-2
same,retention by the liver,"[2]; 1-week pi, i.v. 2 μmol kg-1",73%
same,Tumour-to-plasma ratio,[2]; [4],0.4
same,Tumour-to-skin ratio,[2]; [4],3.5
same,Tumour-to-tumour skin ratio,[2]; [4],1.0
same,Tumour-to-muscle ratio,[2]; [5],16.9
same,Tumour-to-plasma ratio,[2]; [5],>>
same,Tumour-to-skin ratio,[2]; [5],5.3
same,Tumour-to-tumour skin ratio,[2]; [5],1.0
same,Tumour-to-muscle ratio,[2]; [6],19.5
same,Tumour-to-plasma ratio,[2]; [6],>>
same,Tumour-to-skin ratio,[2]; [6],3.3
same,Tumour-to-tumour skin ratio,[2]; [6],0.7
same,Tumour-to-muscle ratio,[2]; [7],>>
same,Tumour-to-plasma ratio,[2]; [7],>>
same,Tumour-to-skin ratio,[2]; [7],2.0
same,Tumour-to-tumour skin ratio,[2]; [7],0.9
same,plasma half-life,"[2]; i.v. 2 μmol kg-1, EMT-6 tumour-bearing mice",2.6 h
